Columns and labels:
[1] = AUC (0 to t) in Sprague-Dawley rat at 1 mg/kg, iv measured upto 24 hrs by LC-MS/MS analysis; type: ADME, organism-based; set-up: time < 24 hrs, dose 1 mg/kg, route iv; conditions: in vivo
[2] = Acute toxicity in 12 hr fasted female CD-1(ICR) mouse assessed as pathological damage in lung at 2 g/Kg, IG measured after 14 days by H and E staining based analysis; type: tissue-based; conditions: in vivo, po, 2000 mg/kg, 336 h, time 14 day
[3] = Tmax in Sprague-Dawley rat at 10 mg/kg, po measured upto 24 hrs by LC-MS/MS analysis; type: ADME, organism-based; conditions: in vivo
[4] = Acute toxicity in 12 hr fasted male CD-1(ICR) mouse assessed as behavioral abnormalities at 2 g/Kg, IG measured after 14 days; conditions: in vivo, po, 2000 mg/kg, 336 h, time 14 day
Cytochrome P450 3A4 [5] = molecular target: T1, Cytochrome P450 3A4 (Homo sapiens, UniProt P08684); assay: Inhibition of CYP3A4 in human liver microsomes using testosterone as substrate incubated for 15 to 45 mins in presence of NADPH; type: ADME, Microsome
T1 sequence (P08684 whole entry): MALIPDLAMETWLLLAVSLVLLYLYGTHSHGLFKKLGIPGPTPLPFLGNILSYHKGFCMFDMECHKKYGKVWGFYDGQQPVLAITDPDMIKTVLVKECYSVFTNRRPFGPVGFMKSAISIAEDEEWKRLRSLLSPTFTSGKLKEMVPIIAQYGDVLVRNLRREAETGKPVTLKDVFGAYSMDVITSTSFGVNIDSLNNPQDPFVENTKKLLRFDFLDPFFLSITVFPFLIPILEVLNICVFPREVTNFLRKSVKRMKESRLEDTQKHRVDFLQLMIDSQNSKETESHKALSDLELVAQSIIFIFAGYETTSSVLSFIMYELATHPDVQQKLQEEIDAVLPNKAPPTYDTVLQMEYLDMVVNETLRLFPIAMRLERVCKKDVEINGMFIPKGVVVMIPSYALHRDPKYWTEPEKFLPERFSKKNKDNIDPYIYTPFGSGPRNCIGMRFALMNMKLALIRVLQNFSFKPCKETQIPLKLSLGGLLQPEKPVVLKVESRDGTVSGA

[6] = AUC (0 to infinity) in Sprague-Dawley rat at 1 mg/kg, iv measured upto 24 hrs by LC-MS/MS analysis; type: ADME, organism-based; set-up: time < 24 hrs, dose 1 mg/kg, route iv; conditions: in vivo
[7] = Acute toxicity in 12 hr fasted male CD-1(ICR) mouse assessed as pathological damage in brain at 2 g/Kg, IG measured after 14 days by H and E staining based analysis; type: tissue-based; conditions: in vivo, po, 2000 mg/kg, 336 h, time 14 day
[8] = Resistant factor, ratio of EC50 for antiviral activity against HIV-1 IIIB harboring reverse transcriptase […] mutant to EC50 for antiviral activity against wild type HIV-1 IIIB; type: functional
[9] = test system: Human immunodeficiency virus 1; assay: Antiviral activity against wild type HIV-1 IIIB harboring reverse transcriptase K103N mutant infected in human MT4 cells assessed as protection against virus-induced cytopathic effect incubated for 5 days by MTT assay; type: functional, organism-based; conditions: Human immunodeficiency virus 1, IIIB, MT4, 120 h
[10] = Half life in Sprague-Dawley rat at 10 mg/kg, po measured upto 24 hrs by LC-MS/MS analysis; type: ADME, organism-based; conditions: in vivo
[11] = test system: Human immunodeficiency virus 1; assay: Antiviral activity against wild type HIV-1 IIIB infected in human MT4 cells assessed as protection against virus-induced cytopathic effect incubated for 5 days by MTT assay; type: functional, organism-based; conditions: Human immunodeficiency virus 1, IIIB, MT4, 120 h
[12] = Acute toxicity in 12 hr fasted female CD-1(ICR) mouse assessed as behavioral abnormalities at 2 g/Kg, IG measured after 14 days; conditions: in vivo, po, 2000 mg/kg, 336 h, time 14 day
Cytochrome P450 3A4 [13] = molecular target: T1, Cytochrome P450 3A4; assay: Inhibition of CYP3A4 in human liver microsomes using midazolam as substrate incubated for 15 to 45 mins in presence of NADPH; type: ADME, Microsome
[14] = Resistant factor, ratio of EC50 for antiviral activity against HIV-1 IIIB harboring reverse transcriptase Y181C mutant to EC50 for antiviral activity against wild type HIV-1 IIIB; type: functional
[15] = Tmax in Sprague-Dawley rat at 1 mg/kg, iv measured upto 24 hrs by LC-MS/MS analysis; type: ADME, organism-based; conditions: in vivo
[16] = MRT (0 to infinity) in Sprague-Dawley rat at 10 mg/kg, po measured upto 24 hrs by LC-MS/MS analysis; type: ADME, organism-based; conditions: in vivo
[17] = Cytotoxicity against human MT4 cells assessed as reduction in cell viability incubated for 5 days by MTT assay; type: toxicity, cell-based; conditions: time 5 day
[18] = Cmax in Sprague-Dawley rat at 1 mg/kg, iv measured upto 24 hrs by LC-MS/MS analysis; type: ADME, organism-based; set-up: time < 24 hrs, dose 1 mg/kg, route iv; conditions: in vivo
[19] = Acute toxicity in 12 hr fasted female CD-1(ICR) mouse assessed as pathological damage in spleen at 2 g/Kg, IG measured after 14 days by H and E staining based analysis; type: tissue-based; conditions: in vivo, po, 2000 mg/kg, 336 h, time 14 day
[20] = molecular target: Voltage-gated inwardly rectifying potassium channel KCNH2 (Homo sapiens, UniProt Q12809); assay: Inhibition of hERG expressed in CHO cells by Qpatch assay; type: toxicity, cell-based
Voltage-gated inwardly rectifying potassium channel KCNH2, sequence (Q12809 whole entry): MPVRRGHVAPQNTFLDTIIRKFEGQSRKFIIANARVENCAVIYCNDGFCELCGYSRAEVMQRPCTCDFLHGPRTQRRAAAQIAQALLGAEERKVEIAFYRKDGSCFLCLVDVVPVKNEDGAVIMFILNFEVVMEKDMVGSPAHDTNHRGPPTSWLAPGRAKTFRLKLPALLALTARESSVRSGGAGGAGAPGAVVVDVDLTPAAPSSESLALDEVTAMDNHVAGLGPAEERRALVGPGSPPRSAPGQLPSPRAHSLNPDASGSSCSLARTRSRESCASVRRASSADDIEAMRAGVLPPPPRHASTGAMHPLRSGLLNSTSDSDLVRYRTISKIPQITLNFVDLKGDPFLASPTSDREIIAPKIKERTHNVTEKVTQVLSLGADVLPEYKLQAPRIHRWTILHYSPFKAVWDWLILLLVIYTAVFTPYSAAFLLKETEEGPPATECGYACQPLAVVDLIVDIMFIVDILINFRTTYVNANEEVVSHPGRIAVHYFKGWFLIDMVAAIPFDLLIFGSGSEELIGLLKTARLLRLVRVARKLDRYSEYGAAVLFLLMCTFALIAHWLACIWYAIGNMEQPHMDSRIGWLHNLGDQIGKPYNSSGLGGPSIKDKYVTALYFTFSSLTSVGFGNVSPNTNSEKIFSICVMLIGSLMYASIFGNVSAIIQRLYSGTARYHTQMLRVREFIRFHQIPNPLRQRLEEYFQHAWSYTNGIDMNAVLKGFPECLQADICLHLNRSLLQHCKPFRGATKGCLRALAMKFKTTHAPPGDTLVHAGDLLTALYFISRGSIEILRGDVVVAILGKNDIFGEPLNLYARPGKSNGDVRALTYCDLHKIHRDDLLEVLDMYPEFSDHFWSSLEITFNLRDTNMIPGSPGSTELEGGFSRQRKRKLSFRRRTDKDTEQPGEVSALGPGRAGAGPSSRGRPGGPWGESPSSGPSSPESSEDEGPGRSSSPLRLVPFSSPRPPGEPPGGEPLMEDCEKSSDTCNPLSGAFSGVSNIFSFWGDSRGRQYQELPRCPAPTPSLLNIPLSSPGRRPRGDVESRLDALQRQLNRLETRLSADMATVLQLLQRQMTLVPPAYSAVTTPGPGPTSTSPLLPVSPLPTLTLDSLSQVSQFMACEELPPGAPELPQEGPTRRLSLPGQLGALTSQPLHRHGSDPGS

[21] = AUC (0 to t) in Sprague-Dawley rat at 10 mg/kg, po measured upto 24 hrs by LC-MS/MS analysis; type: ADME, organism-based; set-up: dose 10 mg/kg, time < 24 hrs, route po; conditions: in vivo
[22] = Selectivity index, ratio of CC50 for cytotoxicity against human MT4 cells to EC50 for antiviral activity against wild type HIV-1 IIIB infected in human MT4 cells; type: toxicity, cell-based; conditions: read-out: Ratio CC50/EC50
[23] = Acute toxicity in 12 hr fasted male CD-1(ICR) mouse assessed as pathological damage in liver at 2 g/Kg, IG measured after 14 days by H and E staining based analysis; type: tissue-based; conditions: in vivo, po, 2000 mg/kg, 336 h, time 14 day
[24] = Resistant factor, ratio of EC50 for antiviral activity against HIV-1 IIIB harboring reverse transcriptase E138K mutant to EC50 for antiviral activity against wild type HIV-1 IIIB; type: functional

For CONC(=O)c1cnc(Nc2ccc(C#N)cc2)nc1Oc1c(C)cc(-c2ccc(C#N)cc2)cc1C, the AUC(0-t) at 24 h [1] was 1160 ng·h/mL, the Activity [2] was “Non-Toxic” and the Tmax [3] was 2 h. The Activity [4] was “Non-Toxic”, the IC50 (Cytochrome P450 3A4 [5]) was greater than 50 µM and the AUC(0-inf) [6] was 1170 ng·h/mL. The Activity [7] was “Non-Toxic”, the “Ratio EC50” value [8] was 5.7 and the EC50 [9] was 0.008 µM. The half-life [10] was 5.18 h, the EC50 [11] was 0.002 µM and the Activity [12] was “Non-Toxic”. The IC50 (Cytochrome P450 3A4 [13]) was greater than 50 µM, the “Ratio EC50” value [14] was 13 and the Tmax [15] was 4.98 min. It also gave an MRT inf [16] of 5.21 h, a CC50 at 120 h [17] greater than 40.8 µM and a Cmax [18] of 431 ng/mL. The Activity [19] was “Non-Toxic”, the IC50 [20] was greater than 40 µM and the AUC(0-t) at 24 h [21] was 3570 ng·h/mL. For the same molecule, the selectivity ratio [22] was greater than 17400, the Activity [23] was “Non-Toxic” and the “Ratio EC50” value [24] was 2.6.
